Results on one molecule are retold here after patent EP2777394A1, “Agricultural adjuvant composition and process for its obtainment” (SC Teso Spec SRL, priority 2012, dated 2014).

Assay [1] relates to common cocklebur (Xanthium strumarium). The assay is described as follows: Greenhouse test of adjuvants on nicosulfuron efficacy, common cocklebur. The class given is in vivo. The conditions noted are these: nicosulfuron 50 g/ha, without adjuvant, Trend 90 0,1% or soybean oil methylate 1%. As for the experimental part:
(§1) Example 8. The basic adjuvant A1.3 was tested on greenhouse conditions in order to verify its effect on the performance increase of nicosulfuron, herbicide representative for the category of weakly acid herbicides from the sulfonylurea class, which solubility in water is increased on high pH. The used test plants were common cocklebur (Xanthium strumarium), dicotyledonous weed, and large crabgrass (Digitaria sanguinalis), monocotyledonous weed. The common cocklebur was sown on approx. 2 cm deep, in plastic pots of 15 cm diameter, and after emergence was thinned to only 2 plants. The large crabgrass was planted in the same type of plastic pots, at 1 cm deep, and after emergence was thinned to a cluster of around 15 plants. The pots contain a synthetic grown substrate enriched with nutrients for the first week of plant growth ([…] Professional Plus, Canna International BV, Oosterhout, Netherlands), and consequently were not applied fertilizers. […] At three weeks after the treatment it was determined the fresh weight of plants on each repetition by weighting and was estimated the phytotoxicity, using a scale from 0% (without visible symptoms) to 100% (plant completely destroyed). […]

The subject of assay [2] is large crabgrass (Digitaria sanguinalis). The assay is described as follows: Greenhouse test of adjuvants on nicosulfuron efficacy, large crabgrass. The class given is in vivo. Particulars: nicosulfuron 50 g/ha, without adjuvant, Trend 90 0,1% or soybean oil methylate 1%. Here is the method:
as §1

Setting [3] is: fresh weight three weeks after treatment.
Setting [4] is: three weeks after treatment, scale 0-100%.

For the molecule `COc1cc(OC)nc(NC(=O)NS(=O)(=O)c2ncccc2C(=O)N(C)C)n1` [nicosulfuron], the “Mass reduction (% control)” value in assay [1] (setting [3]) was 59c % control; in assay [2] (setting [3]), 52c % control. Moreover, the “Phytotoxicity (%)” value was determined as 33c % in assay [1] (setting [4]) and 40c % in assay [2] (setting [4]).
